Reference: paper PMC8262591 (Brain research bulletin, 2020)
“And” between values parts separate entries of the source, which are not always exact repeats. Equal entries are not always repeated. Structures can show the parent of a compound that is named as a salt.

Columns and labels:
Adult male Wistar rats [1] = experiment: Tail-flick latency; type: in vivo, rat; conditions: for decrease in potency when moving from i.p. to p.o. route of administration: analgesia, i.p. vs p.o.; for peak analgesia: tail-flick
brain CYP2D [2] = conditions: 24 hr i.c.v. propranolol pretreatment, pilot microdialysis study, tramadol p.o.
brain CYP2D [3] = conditions: 24 hr i.c.v. propranolol pretreatment, pilot study
brain CYP2D [4] = conditions: seven-day subcutaneous nicotine; ref McMillan and Tyndale, 2015; cited from earlier work
brain CYP2D [5] = conditions: seven-day subcutaneous nicotine; ref McMillan and Tyndale, 2015; cited from earlier work; remark: listed apart in the source
[6] = oral tramadol; ref Nobilis et al., 2002, Ong et al., 2005; cited from earlier work
Adult male Wistar rats [7] = conditions: tramadol 40 mg/kg i.p.; ref Wang et al., 2015; cited from earlier work

## COc1ccc2c3c1O[C@H]1[C@@H](O)C=C[C@H]4[C@@H](C2)N(C)CC[C@@]341 [codeine]
Adult male Wistar rats [1]
  decrease in potency when moving from i.p. to p.o. route of administration: 2.5 – 10 fold

## CN1CC[C@]23c4c5ccc(O)c4O[C@H]2[C@@H](O)C=C[C@H]3[C@H]1C5 [morphine]
Adult male Wistar rats [1]
  decrease in potency when moving from i.p. to p.o. route of administration: 2.5 – 10 fold

## CC(C)NCC(O)COc1cccc2ccccc12 (stereo not drawn) [propranolol, Propranolol hydrochloride]
Brain CYP2D [2]
  effect on brain levels of tramadol, ODSMT and NDSMT: increased
Brain CYP2D [3]
  effect on analgesia after tramadol p.o.: increase in analgesia

## CN1CCC[C@H]1c1cccnc1 [nicotine]
Brain CYP2D [4]
  increase in codeine-induced antinociception, hot-plate test AUC: 2.5 fold
Brain CYP2D [5]
  increase in codeine-induced antinociception, tail-flick reflex AUC0–30 min: 1.6 fold

## COc1cccc(C2(O)CCCCC2CN(C)C)c1 (stereo not drawn) [tramadol, Tramadol hydrochloride]
Adult male Wistar rats [1]
  decrease in potency when moving from i.p. to p.o. route of administration: 2.5 – 10 fold and 2.5 fold
Adult male Wistar rats [1]; tramadol 40 mg/kg i.p.
  overall analgesic response, AUC 0–60 min: 2840 %MPE*min
  time to peak analgesia: 50 min post-injection
  peak analgesia: 65 % MPE
Adult male Wistar rats [1]; tramadol 100 mg/kg p.o.
  peak analgesia: 74 % MPE
[6]
  fraction of a tramadol dose undergoing first-pass metabolism: 30%
Adult male Wistar rats [7]
  overall analgesic response, AUC 0–60 min (published): 1740 %MPE*min
  peak analgesia (published): approximately 52 % MPE
  time to peak analgesia (published): 45 min post-injection
